According to paper PMC9395504 (Investigational New Drugs, 2022):
Read-outs that look alike come from different tables or passages of the source. Marks after values point to notes of the source that are not given here. Blank lines part the entries; values can stand above or below the molecule they belong to.

Assays:
[1] = Safety: adverse events by NCI-CTCAE v4.0, phase 1 study Part 1; type: in vivo, human
Method: We defined the dose-limiting toxicity (DLT) period as the first 28 days of each dose-escalation cohort’s treatment cycle (DLT window). […] Non-hematologic DLTs included grade ≥3 nausea, vomiting, or diarrhea enduring >48 hours despite standard medical management, grade 3 fatigue persisting >7 days or grade 4 fatigue, any grade ≥3 metabolic laboratory abnormalities that are not controlled within 48 hours by standard medical management.

[2] = Plasma pharmacokinetics of trametinib and dabrafenib at steady state (LC-MS/MS, noncompartmental); type: in vivo, human; settings: for Cmax / AUC(0-t) / Tmax: human, plasma, oral
Method: We, therefore, collected samples on these days to perform dabrafenib and trametinib PK analysis.
We determined plasma concentrations of trametinib, dabrafenib, and hydroxy- and desmethyl-dabrafenib metabolites with a validated assay using liquid-liquid extraction of samples spiked with the stable isotope internal standards for each analyte followed by analysis using LC-MS/MS detection. The validated concentration ranges for quantitation were 0.250 to 250 ng/mL for trametinib and 1.00 to 1,000 ng/mL for dabrafenib and its metabolites. We calculated concentrations using a linear regression calibration model with a 1/x^2 weighting factor.
The following PK parameters were estimated: maximum observed plasma concentration (Cmax), time to reach Cmax (tmax), area-under-the-plasma concentration-time curve (AUC), terminal phase half-life (t1/2,z), and apparent total body clearance (CL/F). We performed noncompartmental analyses for PK parameter estimation using Phoenix® WinNonlin® version 6.4 or later software (Certara™, Princeton, NJ). […] We prepared descriptive statistics, tables, and graphs using Phoenix® WinNonlin® and Prism version 9.1.1 (GraphPad Software, San Diego, CA).

[3] = trametinib 2 mg QD, Cycle 2 Day 7 with AMG 232, Arm 2 cohort 1 (AMG 232 120 mg), geometric mean (CV%)
[4] = trametinib 2 mg QD, Cycle 2 Day 7 with AMG 232, Arm 2 cohort 3 (AMG 232 240 mg), geometric mean (CV%)

- Effect of AMG 232 co-administration on trametinib PK ([2]; cycle 2 day 7 vs cycle 1 day 21): does not appear to affect
- Cmax ([2]; 2 mg, trametinib 2 mg QD, Cycle 1 Day 21 without AMG 232, Arm 2 cohort 1 (AMG 232 120 mg), geometric mean (CV%)): 21.5 ng/mL
- AUC(0-t) ([2]; 2 mg, trametinib 2 mg QD, Cycle 1 Day 21 without AMG 232, Arm 2 cohort 1 (AMG 232 120 mg), geometric mean (CV%), read-out: AUC24hr): 370 ng·h/mL
- Cmax ([2]; 2 mg, trametinib 2 mg QD, Cycle 1 Day 21 without AMG 232, Arm 2 cohort 2 (AMG 232 180 mg), geometric mean (CV%)): 25.3 ng/mL
- Tmax ([2]; 2 mg, trametinib 2 mg QD, Cycle 1 Day 21 without AMG 232, Arm 2 cohort 2 (AMG 232 180 mg), median (min-max), read-out: tmax): 4 h
- Cmax ([2]; 2 mg, trametinib 2 mg QD, Cycle 1 Day 21 without AMG 232, Arm 2 cohort 3 (AMG 232 240 mg), geometric mean (CV%)): 22.1 ng/mL
- Tmax ([2]; 2 mg, trametinib 2 mg QD, Cycle 1 Day 21 without AMG 232, Arm 2 cohort 3 (AMG 232 240 mg), median (min-max), read-out: tmax): 2 h
- Cmax ([2]; trametinib 2 mg QD, Cycle 1 Day 21 without AMG 232, Arm 1 cohort 1 (AMG 232 120 mg), geometric mean (CV%)): 20.1 ng/mL
- AUC(0-t) ([2]; trametinib 2 mg QD, Cycle 1 Day 21 without AMG 232, Arm 1 cohort 1 (AMG 232 120 mg), geometric mean (CV%), read-out: AUC24hr): 326 ng·h/mL
- Tmax ([2]; trametinib 2 mg QD, Cycle 1 Day 21 without AMG 232, Arm 1 cohort 1 (AMG 232 120 mg), median (min-max), read-out: tmax): 2 h
- Cmax ([2]; trametinib 2 mg QD, Cycle 1 Day 21 without AMG 232, Arm 1 cohort 2 (AMG 232 180 mg), geometric mean (CV%)): 24.1 ng/mL
- AUC(0-t) ([2]; trametinib 2 mg QD, Cycle 1 Day 21 without AMG 232, Arm 1 cohort 2 (AMG 232 180 mg), geometric mean (CV%), read-out: AUC24hr): 362 ng·h/mL
- Tmax ([2]; trametinib 2 mg QD, Cycle 1 Day 21 without AMG 232, Arm 1 cohort 2 (AMG 232 180 mg), median (min-max), read-out: tmax): 2 h
- Cmax ([2]; trametinib 2 mg QD, Cycle 2 Day 7 with AMG 232, Arm 1 cohort 1 (AMG 232 120 mg), geometric mean (CV%)): 22.4 ng/mL
- AUC(0-t) ([2]; trametinib 2 mg QD, Cycle 2 Day 7 with AMG 232, Arm 1 cohort 1 (AMG 232 120 mg), geometric mean (CV%), read-out: AUC24hr): 338 ng·h/mL
- Tmax ([2]; trametinib 2 mg QD, Cycle 2 Day 7 with AMG 232, Arm 1 cohort 1 (AMG 232 120 mg), median (min-max), read-out: tmax): 2 h
- Cmax ([2]; trametinib 2 mg QD, Cycle 2 Day 7 with AMG 232, Arm 1 cohort 2 (AMG 232 180 mg), geometric mean (CV%)): 25.9 ng/mL
- AUC(0-t) ([2]; trametinib 2 mg QD, Cycle 2 Day 7 with AMG 232, Arm 1 cohort 2 (AMG 232 180 mg), geometric mean (CV%), read-out: AUC24hr): 402 ng·h/mL
- Tmax ([2]; trametinib 2 mg QD, Cycle 2 Day 7 with AMG 232, Arm 1 cohort 2 (AMG 232 180 mg), median (min-max), read-out: tmax): 2 h
- Cmax [2, 3]: 24.8 ng/mL
- Tmax ([2]; trametinib 2 mg QD, Cycle 2 Day 7 with AMG 232, Arm 2 cohort 1 (AMG 232 120 mg), median (min-max), read-out: tmax): 2 h
- Cmax ([2]; trametinib 2 mg QD, Cycle 2 Day 7 with AMG 232, Arm 2 cohort 2 (AMG 232 180 mg), n = 1): 21.8 ng/mL
- AUC(0-t) ([2]; trametinib 2 mg QD, Cycle 2 Day 7 with AMG 232, Arm 2 cohort 2 (AMG 232 180 mg), n = 1, read-out: AUC24hr): 463 ng·h/mL
- Tmax ([2]; trametinib 2 mg QD, Cycle 2 Day 7 with AMG 232, Arm 2 cohort 2 (AMG 232 180 mg), n = 1, read-out: tmax): 2 h
- Cmax [2, 4]: 24.3 ng/mL
- Tmax ([2]; trametinib 2 mg QD, Cycle 2 Day 7 with AMG 232, Arm 2 cohort 3 (AMG 232 240 mg), median (min-max), read-out: tmax): 2 h
- Tmax ([2]; trametinib, cycle 2, day 7, with AMG 232 co-administration, across dose cohorts, read-out: median tmax): 1 to 3 h
- AUC24hr ([2]; trametinib 2 mg QD, Cycle 1 Day 21 without AMG 232, Arm 2 cohort 2 (AMG 232 180 mg), geometric mean (CV%)): 471 (26.7%) n = 5 hr•ng/mL
- AUC24hr ([2]; trametinib 2 mg QD, Cycle 1 Day 21 without AMG 232, Arm 2 cohort 3 (AMG 232 240 mg), geometric mean (CV%)): 385 (22.9%) n = 6 hr•ng/mL
- AUC24hr [2, 3]: 468 (23.5%)^a n = 3 hr•ng/mL
- AUC24hr [2, 4]: 351 (41.9%)^a n = 4 hr•ng/mL
- median tmax ([2]; trametinib, cycle 1, day 21, without AMG 232 co-administration, across dose cohorts): 2 h
SMILES: CC(=O)Nc1cccc(-n2c(=O)n(C3CC3)c(=O)c3c(Nc4ccc(I)cc4F)n(C)c(=O)c(C)c32)c1 [trametinib]
- Patients discontinuing trametinib due to AEs ([1]; all 31 patients, n=6): 19%

- Effect of AMG 232 on dabrafenib exposures ([2]; dabrafenib and trametinib with and without AMG 232): not significantly altered
- Cmax ([2]; 150 mg BID, dabrafenib 150 mg BID, Cycle 1 Day 21, T + D without AMG 232, Arm 1 cohort 1 (AMG 232 120 mg), geometric mean (CV%)): 1740 ng/mL
- AUC(0-t) ([2]; 150 mg BID, dabrafenib 150 mg BID, Cycle 1 Day 21, T + D without AMG 232, Arm 1 cohort 1 (AMG 232 120 mg), geometric mean (CV%), read-out: AUC6hr): 4840 ng·h/mL
- Cmax ([2]; 150 mg BID, dabrafenib 150 mg BID, Cycle 1 Day 21, T + D without AMG 232, Arm 1 cohort 2 (AMG 232 180 mg), geometric mean (CV%)): 3310 ng/mL
- AUC(0-t) ([2]; 150 mg BID, dabrafenib 150 mg BID, Cycle 1 Day 21, T + D without AMG 232, Arm 1 cohort 2 (AMG 232 180 mg), geometric mean (CV%), read-out: AUC6hr): 7450 ng·h/mL
- Tmax ([2]; 150 mg BID, dabrafenib 150 mg BID, Cycle 1 Day 21, T + D without AMG 232, Arm 1 cohort 2 (AMG 232 180 mg), median (min-max), read-out: tmax): 1 h
- Tmax ([2]; dabrafenib 150 mg BID, Cycle 1 Day 21, T + D without AMG 232, Arm 1 cohort 1 (AMG 232 120 mg), median (min-max), read-out: tmax): 1 h
- Cmax ([2]; dabrafenib 150 mg BID, Cycle 2 Day 7, T + D with AMG 232, Arm 1 cohort 1 (AMG 232 120 mg), geometric mean (CV%)): 1200 ng/mL
- AUC(0-t) ([2]; dabrafenib 150 mg BID, Cycle 2 Day 7, T + D with AMG 232, Arm 1 cohort 1 (AMG 232 120 mg), geometric mean (CV%), read-out: AUC6hr): 3640 ng·h/mL
- Cmax ([2]; dabrafenib 150 mg BID, Cycle 2 Day 7, T + D with AMG 232, Arm 1 cohort 2 (AMG 232 180 mg), geometric mean (CV%)): 1750 ng/mL
- AUC(0-t) ([2]; dabrafenib 150 mg BID, Cycle 2 Day 7, T + D with AMG 232, Arm 1 cohort 2 (AMG 232 180 mg), geometric mean (CV%), read-out: AUC6hr): 4910 ng·h/mL
- Tmax ([2]; dabrafenib, cycle 1, day 21, without AMG 232 co-administration, read-out: median tmax): 1 h
SMILES: CC(C)(C)c1nc(-c2cccc(NS(=O)(=O)c3c(F)cccc3F)c2F)c(-c2ccnc(N)n2)s1 [dabrafenib]
- Patients discontinuing dabrafenib due to AEs ([1]; 10 patients in Arm 1, n=2): 20%
